Experimental data published in patent US9127003B2, “2-(azaindol-2-yl)benzimidazoles as PAD4 inhibitors” (Glaxo Group Limited, priority 2012, dated 2015).
“And” between values parts separate entries of the source, which are not always exact repeats. Equal values may be shown once. Where a name gives a salt, the structure may show the parent alone.

target: T1, Recombinant human PAD4 (residues 1-663) (Homo sapiens, UniProt Q9UM07); experiment: PAD4 enzyme assay (NH3 release, BAEE substrate, fluorescence); format: biochemical; settings: PAD4 enzyme assay above (Conditions A or B) or similar assays; read-out: mean pIC50 (converted)
T1 construct: Recombinant human PAD4 (residues 1-663); GST (N, cleaved yes); made in house; host or cells: E. coli
T1 sequence (Q9UM07 whole entry, the tested form may be a part): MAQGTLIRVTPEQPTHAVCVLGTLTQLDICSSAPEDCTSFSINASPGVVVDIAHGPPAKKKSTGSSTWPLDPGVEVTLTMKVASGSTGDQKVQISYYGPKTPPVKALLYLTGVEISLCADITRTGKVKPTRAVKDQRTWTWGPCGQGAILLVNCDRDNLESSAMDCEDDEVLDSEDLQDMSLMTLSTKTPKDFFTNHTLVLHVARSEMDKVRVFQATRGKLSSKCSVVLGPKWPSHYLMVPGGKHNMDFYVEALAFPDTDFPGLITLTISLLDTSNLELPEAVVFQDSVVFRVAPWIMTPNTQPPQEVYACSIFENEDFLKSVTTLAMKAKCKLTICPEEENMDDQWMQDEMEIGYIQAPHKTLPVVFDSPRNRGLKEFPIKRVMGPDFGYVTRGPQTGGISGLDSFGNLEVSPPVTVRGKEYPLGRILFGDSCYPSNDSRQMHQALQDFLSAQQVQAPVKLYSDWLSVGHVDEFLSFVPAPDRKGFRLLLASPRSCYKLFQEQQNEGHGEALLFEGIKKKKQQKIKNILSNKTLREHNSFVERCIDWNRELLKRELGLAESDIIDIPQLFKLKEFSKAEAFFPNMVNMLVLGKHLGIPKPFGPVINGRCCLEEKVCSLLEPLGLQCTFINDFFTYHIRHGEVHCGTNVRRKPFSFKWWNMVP
Procedure: Recombinant human PAD4 (residues 1-663) was expressed in E. coli as an N-terminal GST-tagged fusion protein. During purification of the protein, the GST tag was removed by cleavage with PreScission Protease (GE Healthcare). Activity of the final product was determined using a FLINT NH3 release assay.
(§1) 8 μl of PAD4 enzyme diluted to an assay concentration of 75 nm in assay buffer (a).: (100 mM HEPES, 50 mM NaCl, 2 mM DTT and 0.6 mg/mIBSA pH 8), or in assay buffer (b).: (100 mM HEPES, 50 mM NaCl, 2 mM DTT, 7.5% glycerol and 1.5 mM CHAPS pH 8), and added to wells containing 0.1 μl of various concentrations of compound or DMSO vehicle (0.8% final) in a Greiner high volume 384 well black plate. Following 30 mins pre-incubation at room temperature, the reaction was initiated by the addition of 4 μl of substrate buffer containing 3 mM N-a-benzoyl-L-arginine ethyl ester (BAEE), 100 mM HEPES, 50 mM NaCl, 600 uM CaCl2 (2H2O) and 2 mM DTT, pH 8.0. The reaction was stopped after 100 mins with the addition of 38 μl stop/detection buffer containing 50 mM EDTA, 2.6 mM phthalaldehyde and 2.6 mM DTT. Assay incubated at room temperature for 90 mins before measuring fluorescent signal (λex 413/λem 476) on an Envision plate reader (Perkin Elmer Life Sciences, Waltham, Mass., USA)
as §1, with “of 30 nM” for “of 75 nm”, “buffer” for “buffer (a).:”, “mg/mIBSA” for “mg/mIBSA pH 8), or in assay buffer (b).: (100 mM HEPES, 50 mM NaCl, 2 mM DTT, 7.5% glycerol and 1.5 mM CHAPS”, “after 60” for “after 100”, “(λex 405/λem 460)” for “(λex 413/λem 476)”

| IC50 | SMILES |
| --- | --- |
| 0.0316 to 10 µM | CCn1c(-c2nc3cc(C(=O)N4CCC[C@@H](N)C4)ccc3n2C)cc2cccnc21 [Example 2A, (R)-(3-Aminopiperidin-1-yl)(2-(1-ethyl-1H-pyrrolo[2,3-b]pyridin-2-yl)-1-methyl-1H-benzo[d]imidazol-5-yl)methanone] |
| 0.0316 to 10 µM | Cn1c(-c2cc3cccnc3n2CC(F)(F)F)nc2cc(C(=O)N3CCC[C@@H](N)C3)ccc21 [Example 4A, (R)-(3-Aminopiperidin-1-yl)(1-methyl-2-(1-(2,2,2-trifluoroethyl)-1H-pyrrolo[2,3-b]-pyridin-2-yl)-1H-benzo[d]imidazol-5-yl)methanone] |
| 0.0316 to 10 µM and 0.2 µM | Cn1c(-c2cc3cccnc3n2CC2CC2)nc2cc(C(=O)N3CCC[C@@H](N)C3)ccc21 [Example 5B, (R)-(3-Aminopiperidin-1-yl)(2-(1-(cyclopropylmethyl)-1H-pyrrolo[2,3-b]pyridin-2-yl)-1-methyl-1H-benzo[d]imidazol-5-yl)methanone, hydrochloride] |
| 0.0316 to 10 µM | CCn1c(-c2nc3cc(C(=O)N4CCC[C@@H](N)C4)cc(OC)c3n2C)cc2cccnc21 [Example 9A, (R)-(3-Aminopiperidin-1-yl)(2-(1-ethyl-1H-pyrrolo[2,3-b]pyridin-2-yl)-7-methoxy-1-methyl-1H-benzo[d]imidazol-5-yl)methanone] |
| 0.0316 to 10 µM and 0.0501 µM | COc1cc(C(=O)N2CCC[C@@H](N)C2)cc2nc(-c3cc4cccnc4n3CC3CC3)n(C)c12 [Example 10B, (R)-(3-Aminopiperidin-1-yl)(2-(1-(cyclopropylmethyl)-1H-pyrrolo[2,3-b]pyridin-2-yl)-7-methoxy-1-methyl-1H-benzo[d]imidazol-5-yl)methanone, hydrochloride] |
| 0.0316 to 10 µM | COc1cc(C(=O)N2CCC[C@@H](N)C2)cc2nc(-c3cc4cccnc4n3CC(F)(F)F)n(C)c12 [Example 11A, (R)-(3-Aminopiperidin-1-yl)(7-methoxy-1-methyl-2-(1-(2,2,2-trifluoroethyl)-1H-pyrrolo[2,3-b]pyridin-2-yl)-1H-benzo[d]imidazol-5-yl)methanone] |

Second part, the compound before the results:

| SMILES | IC50 |
| --- | --- |
| COc1cc(C(=O)N2C[C@@H](N)CC[C@H]2C)cc2nc(-c3cc4cccnc4n3CC3CC3)n(C)c12 (single isomer, unassigned) [Example 23, ((cis)-5-Amino-2-methylpiperidin-1-yl)(2-(1-(cyclopropylmethyl)-1H-pyrrolo[2,3-b]pyridin-2-yl)-7-methoxy-1-methyl-1H-benzo[d]imidazol-5-yl)methanone, hydrochloride] | 0.0316 to 10 µM |
| COc1cc(C(=O)N2C[C@H](N)CC[C@@H]2C)cc2nc(-c3cc4cccnc4n3CC3CC3)n(C)c12 (single isomer, unassigned) [Example 24, ((cis)-5-Amino-2-methylpiperidin-1-yl)(2-(1-(cyclopropylmethyl)-1H-pyrrolo[2,3-b]pyridin-2-yl)-7-methoxy-1-methyl-1H-benzo[d]imidazol-5-yl)methanone, hydrochloride] | 0.0316 to 10 µM |
| CCn1c(-c2nc3cc(C(=O)N4CCCC(N)C4)ccc3n2C)cc2cnccc21 (centres unmarked) [Example 1, 1-{[2-(1-Ethyl-1H-pyrrolo[3,2-c]pyridin-2-yl)-1-methyl-1H-benzimidazol-5-yl]carbonyl}-3-piperidinamine] | 0.0316 to 10 µM |
| CCn1c(-c2nc3cc(C(=O)N4CCC[C@@H](N)C4)ccc3n2C)cc2ccncc21 [Example 3, (R)-(3-Aminopiperidin-1-yl)(2-(1-ethyl-1H-pyrrolo[2,3-c]pyridin-2-yl)-1-methyl-1H-benzo[d]imidazol-5-yl)methanone] | 0.0316 to 10 µM |
| CCn1c(-c2nc3cc(C(=O)N4CCC[C@@H](N)C4)ccc3n2C)cc2cc(OC)cnc21 [Example 6, (R)-(3-Aminopiperidin-1-yl)(2-(1-ethyl-5-methoxy-1H-pyrrolo[2,3-b]pyridin-2-yl)-1-methyl-1H-benzo[d]imidazol-5-yl)methanone] | 0.0316 to 10 µM |
| CCn1c(-c2nc3cc(C(=O)N4CCC[C@@H](N)C4)ccc3n2C)cc2cc(OC)ncc21 [Example 7, (R)-(3-Aminopiperidin-1-yl)(2-(1-ethyl-5-methoxy-1H-pyrrolo[2,3-c]pyridin-2-yl)-1-methyl-1H-benzo[d]imidazol-5-yl)methanone] | 0.0316 to 10 µM |
| CCn1c(-c2nc3cc(C(=O)N4CCC[C@@H](N)C4)ccc3n2C)cc2cc(O)cnc21 [Example 8, 2-(5-{[(3R)-3-Amino-1-piperidinyl]carbonyl}-1-methyl-1H-benzimidazol-2-yl)-1-ethyl-1H-pyrrolo[2,3-b]pyridin-5-ol] | 0.0316 to 10 µM |
| CCn1c(-c2nc3cc(C(=O)N4CCCC(N)C4)ccc3n2C)cc2cccnc21 (centres unmarked) [Example 12, (3-Aminopiperidin-1-yl)(2-(1-ethyl-1H-pyrrolo[2,3-b]pyridin-2-yl)-1-methyl-1H-benzo[d]imidazol-5-yl)methanone] | 0.0316 to 10 µM |
| CCn1c(-c2nc3cc(C(=O)N4CCC[C@@H](N)C4)cc(OC(F)(F)F)c3n2C)cc2cccnc21 [Example 15, (R)-(3-Aminopiperidin-1-yl)(2-(1-ethyl-1H-pyrrolo[2,3-b]pyridin-2-yl)-1-methyl-7-(trifluoromethoxy)-1H-benzo[d]imidazol-5-yl)methanone] | 0.0316 to 10 µM |
| CCC(C)Cn1c(-c2nc3cc(C(=O)N4CCC[C@@H](N)C4)cc(OC)c3n2C)cc2cccnc21 (stereo partly drawn) [Example 17, ((R)-3-Aminopiperidin-1-yl)(7-methoxy-1-methyl-2-(1-(2-methylbutyl)-1H-pyrrolo[2,3-b]pyridin-2-yl)-1H-benzo[d]imidazol-5-yl)methanone] | 0.0316 to 10 µM |
| CCn1c(-c2nc3cc(C(=O)N4CCC[C@@H](N)C4)cc(OC)c3n2CCOC)cc2cccnc21 [Example 18, (R)-(3-Aminopiperidin-1-yl)(2-(1-ethyl-1H-pyrrolo[2,34]pyridin-2-yl)-7-methoxy-1-(2-methoxyethyl)-1H-benzo[d]imidazol-5-yl)methanone, hydrochloride] | 0.0316 to 10 µM |
| CCn1c(-c2nc3cc(C(=O)N4CCC[C@@H](N)C4)cc(OC)c3n2CC(C)C)cc2cccnc21 [Example 20, (R)-(3-Aminopiperidin-1-yl)(2-(1-ethyl-1H-pyrrolo[2,3-b]pyridin-2-yl)-1-isobutyl-7-methoxy-1H-benzo[d]imidazol-5-yl)methanone, hydrochloride] | 0.0316 to 10 µM |
| COc1cc(C(=O)N2CCC[C@@H](N)C2)cc2nc(-c3cc4cccnc4n3CC(C)(C)OC)n(C)c12 [Example 21, (R)-(3-Aminopiperidin-1-yl)(7-methoxy-2-(1-(2-methoxy-2-methylpropyl)-1H-pyrrolo[2,3-b]pyridin-2-yl)-1-methyl-1H-benzo[d]imidazol-5-yl)methanone] | 0.0316 to 10 µM |

target: T2, Recombinant human PAD2 (residues 1-665) (Homo sapiens, UniProt Q9Y2J8); experiment: PAD2 enzyme assay (NH3 release, BAEE substrate, fluorescence); format: biochemical; settings: PAD2 enzyme assay above or similar assays; read-out: mean pIC50 (converted)
T2 construct: Recombinant human PAD2 (residues 1-665); 6His-FLAG (N); made in house; host or cells: baculovirus-infected Sf9 insect cells
T2 sequence (Q9Y2J8 whole entry, the tested form may be a part): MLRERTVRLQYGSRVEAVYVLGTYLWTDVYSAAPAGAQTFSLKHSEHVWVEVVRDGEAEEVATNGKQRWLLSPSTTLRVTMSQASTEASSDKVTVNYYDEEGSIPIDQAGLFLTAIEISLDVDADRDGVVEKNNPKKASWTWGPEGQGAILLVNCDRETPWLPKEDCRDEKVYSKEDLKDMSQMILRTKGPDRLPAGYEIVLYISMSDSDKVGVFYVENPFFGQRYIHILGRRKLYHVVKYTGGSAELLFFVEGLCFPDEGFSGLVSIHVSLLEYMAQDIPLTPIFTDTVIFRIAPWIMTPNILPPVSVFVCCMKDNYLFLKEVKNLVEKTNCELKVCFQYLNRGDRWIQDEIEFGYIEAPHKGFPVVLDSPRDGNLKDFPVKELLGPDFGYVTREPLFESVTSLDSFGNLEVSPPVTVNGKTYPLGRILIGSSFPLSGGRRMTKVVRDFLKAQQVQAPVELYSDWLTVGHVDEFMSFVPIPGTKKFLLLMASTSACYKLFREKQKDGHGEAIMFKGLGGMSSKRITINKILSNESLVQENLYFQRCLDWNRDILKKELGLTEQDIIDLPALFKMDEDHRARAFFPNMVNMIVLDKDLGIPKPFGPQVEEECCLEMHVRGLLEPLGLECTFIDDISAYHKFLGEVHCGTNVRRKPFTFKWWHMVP
Procedure: Recombinant human PAD2 (residues 1-665) was expressed in baculovirus-infected Sf9 insect cells as an N-terminal 6His-FLAG-tagged fusion protein. Activity of the final product was determined using a FLINT NH3 release assay.
8 μl of PAD2 enzyme diluted to an assay concentration of 30 nM in assay buffer (100 mM HEPES, 50 mM NaCl, 2 mM DTT, 7.5% glycerol and 1.5 mM CHAPS pH 8), and added to wells containing 0.1 μl of various concentrations of compound or DMSO vehicle (0.8% final) in a Greiner high volume 384 well black plate. Following 30 mins pre-incubation at room temperature, the reaction was initiated by the addition of 4 μl of substrate buffer containing 180 uM N-a-benzoyl-L-arginine ethyl ester (BAEE), 100 mM HEPES, 50 mM NaCl, 240 uM CaCl2 (2H2O) and 2 mM DTT, pH 8.0. The reaction was stopped after 90 mins with the addition of 38 μl stop/detection buffer containing 50 mM EDTA, 2.6 mM phthalaldehyde and 2.6 mM DTT. Assay incubated at room temperature for 90 mins before measuring fluorescent signal (λex 405/λem 460) on an Envision plate reader (Perkin Elmer Life Sciences, Waltham, Mass., USA)

| IC50 | SMILES |
| --- | --- |
| 63.1 to 79.4 µM | CCn1c(-c2nc3cc(C(=O)N4CCC[C@@H](N)C4)ccc3n2C)cc2cccnc21 [Example 2B, (R)-(3-Aminopiperidin-1-yl)(2-(1-ethyl-1H-pyrrolo[2,3-b]pyridin-2-yl)-1-methyl-1H-benzo[d]imidazol-5-ylmethanone hydrochloride] |
| 63.1 to 79.4 µM and > 79.4 µM | Cn1c(-c2cc3cccnc3n2CC2CC2)nc2cc(C(=O)N3CCC[C@@H](N)C3)ccc21 [Example 5B, (R)-(3-Aminopiperidin-1-yl)(2-(1-(cyclopropylmethyl)-1H-pyrrolo[2,3-b]pyridin-2-yl)-1-methyl-1H-benzo[d]imidazol-5-yl)methanone, hydrochloride] |
| 63.1 to 79.4 µM and > 79.4 µM | CCn1c(-c2nc3cc(C(=O)N4CCC[C@@H](N)C4)cc(OC)c3n2C)cc2cccnc21 [Example 9B, (R)-(3-Aminopiperidin-1-yl)(2-(1-ethyl-1H-pyrrolo[2,3-b]pyridin-2-yl)-7-methoxy-1-methyl-1H-benzo[d]imidazol-5-yl)methanone, hydrochloride] |
| 63.1 to 79.4 µM and > 79.4 µM | COc1cc(C(=O)N2CCC[C@@H](N)C2)cc2nc(-c3cc4cccnc4n3CC3CC3)n(C)c12 [Example 10B, (R)-(3-Aminopiperidin-1-yl)(2-(1-(cyclopropylmethyl)-1H-pyrrolo[2,3-b]pyridin-2-yl)-7-methoxy-1-methyl-1H-benzo[d]imidazol-5-yl)methanone, hydrochloride] |
